Measured values published in patent publication US20100210467A1, “AGENT FOR IMPROVING SUGARCANE BRIX AND METHOD OF PROMOTING SUGARCANE RIPENING USING THE SAME” (Kumiai Chemical Industry Co., Ltd., priority 2007, published 2010).

What was measured:
Type in all cases: in vivo
sugarcane [1] = assay: Example 2: sugar content of sugarcane stem juice after spraying from an aircraft, field test in Brazil; conditions: 50 g/ha; after 30 days of spraying
Protocol: (§1) In accordance with “NORMAS DE AVALIAçÃO DA […] DA CANA-DE-AçÚCAR” used in Brazilian sugar refining plants as Standard for quality evaluation of sugarcane, the analysis on the sugar content in the squeezed juice of sugarcane stem was carried out for Brix value, sugar content in sugarcane (PC), and total sugar amount recoverable from sugarcane stem (ATR) as follows.
(§2) Brix was measured according to a digital refractometer. PC was calculated according to the equation (1). ATR was calculated according to the equation (5).
At the time the Brix value of sugarcane grown in a sugarcane cultivated area in Brazil (an average Brix value in the harvesttime being 21%) became 81% of the aforesaid average Brix value, a bispyribac-sodium formulation (a commercially available product, a tradename “NOMINEE 400SC”) was diluted with water so that the amount of the effective ingredient in 30 liters of the spraying liquid could be equal to the used amount shown in Table 3, and the liquid was sprayed over the test area from an air-craft at a rate of 30 liters per hectare.
In a control area, a known fluazifop formulation (a commercially available product, a tradename “[…]”) was similarly sprayed.
Next, 5 individual sugarcanes were cut from 5 locations in each area, i.e. 25 sugarcanes from each area, on the initial day of spraying and after 30 days of spraying, and thereafter the stems were squeezed and sugar was recovered from the juice to obtain the yield. The yield after 30 days of spraying was compared with the yield of the initial day of spraying and the rate of increase (%) was calculated. The analysis on the sugar content in the squeezed juice of sugarcane stems was carried out similarly as in the case of Example 1.

sugarcane [2] = assay: Example 4: sugar content of sugarcane stem juice after pyribenzoxim back pack spraying, field test in Brazil
Protocol: as §1, §2
At the time the Brix value of sugarcane grown in a sugarcane cultivated area in Brazil (an average Brix value in the harvesttime being 20%) became 86% of the aforesaid average Brix value, a pyribenzoxim formulation (a tradename “PYANCHOR”) was diluted with water so that the amount of the effective ingredient in 105 liters of the spraying liquid could be equal to the used amount shown in Table 6, and the liquid was sprayed above the plant by the aid of a CO2-pressurized back pack sprayer to the test area at a rate of 105 liters per hectare.
(§3) In a control area, a known sulfometuron-methyl formulation (a commercially available product, a tradename “CURAVIAL”) was similarly sprayed.
(§4) Next, 20 individual sugarcanes were cut from each area on the initial day of spraying, after 15 days of spraying, after 30 days of spraying and after 45 days of spraying, and thereafter the stems were squeezed and sugar was recovered from the juice to obtain the yield. Each yield was compared with the yield of the initial day of spraying and the rate of increase (%) was calculated. The analysis on the sugar content in the squeezed juice of sugarcane stems was carried out similarly as in the case of Example 1.

sugarcane [3] = assay: Example 3: sugar content of sugarcane stem juice after pyrimisulfan back pack spraying, field test in Brazil
Protocol: as §1, §2
At the time the Brix value of sugarcane grown in a sugarcane cultivated area in Brazil (an average Brix value in the harvesttime being 18%) became 88% of the aforesaid average Brix value, pyrimisulfan (pyrimisulfan prepared by a method disclosed in JP2000-44546A) was diluted with water so that the amount of the effective ingredient in 105 liters of the spraying liquid could be equal to the used amount shown in Table 4, and the liquid was sprayed above the plant by the aid of a CO2-pressurized back pack sprayer to the test area at a rate of 105 liters per hectare.
as §3, §4

sugarcane [4] = assay: Example 1: sugar content of sugarcane stem juice after power-sprayer application, field test in Brazil; conditions: 15 g/ha
Protocol: With respect to sugarcane grown in a sugarcane cultivated area in Brazil (an average Brix value in the harvesttime being 18%), a juice was collected from 5 middle internodes selected at random in the sugarcane stem and the Brix value was measured according to a usual method. At the time the measured Brix value became 82% of the aforementioned average Brix value, a bispyribac-sodium formulation (a commercially available product, a tradename “NOMINEE 400SC”) was diluted with water so that the amount of the effective ingredient in 74 liters of the spraying liquid could be equal to the used amount shown in Table 1. The liquid was then sprayed above the plant by the aid of a power sprayer to a test area at a rate of 74 liters per hectare.
as §3
Next, 10 individual sugarcanes were cut from each area on the initial day of spraying, after 30 days of spraying and after 45 days of spraying, and thereafter the stem was squeezed and sugar was recovered from the juice to obtain the yield. Each yield was compared with the yield of the initial day of spraying and the rate of increase (%) was calculated.
as §1, §2
S denotes a sugar content in the extracted liquid and is calculated according to the equation (2). F denotes an amount of fibers in sugarcane and is calculated according to the equation (3). C denotes a conversion coefficient from the sugar content in the extracted liquid to an absolute amount and is calculated according to the equation (4).
LAI denotes a measured value by the digital saccharimeter after clarification of the juice by a clarifying mixture made from aluminum.
PBU denotes the mass of a wet bagasse exhausted from a pressing machine in the squeezed step of sugarcane stem.
ARC denotes an amount of reducing sugar of sugarcane and is calculated from the following equation (6).
AR denotes an amount of reducing sugar in the extracted liquid and is calculated from the following equation (7).

sugarcane [5] = assay: Example 5: sugar content of sugarcane stem juice after bispyribac-sodium and/or gibberellin spraying, field test in Brazil
Protocol: as §1, §2
At the time the Brix value of sugarcane grown in a sugarcane cultivated area in Brazil (an average Brix value in the harvesttime being 18%) became 88% of the aforesaid average Brix value, a bispyribac-sodium formulation (a commercially available product, a tradename, “NOMINEE 400SC”) and a gibberellin formulation (a commercially available product, a tradename, “PRO-GIBB”) were admixed together and diluted with water or separately diluted with water so that the amount of the effective ingredient in 105 liters of each of the spraying liquids could be equal to the used amount shown in Table 8, and each liquid was sprayed above the plant by the aid of a CO2-pressurized back pack sprayer to the test area at a rate of 105 liters per hectare.
as §3, §4

[6] = 40 g/ha, after 15 days of spraying
[7] = 40 g/ha, after 30 days of spraying
[8] = 40 g/ha, after 45 days of spraying
[9] = 15 g/ha, after 15 days of spraying
[10] = 15 g/ha, after 30 days of spraying
[11] = 15 g/ha, after 45 days of spraying
[12] = 10 g/ha, after 15 days of spraying
[13] = 10 g/ha, after 30 days of spraying
[14] = 10 g/ha, after 45 days of spraying

## CC(Oc1ccc(Oc2ccc(C(F)(F)F)cn2)cc1)C(=O)O (stereo not drawn) [Fluazifop, fluazifop]
Sugarcane [1]
  ATR increased rate from the initial day of spraying: 20.2%
  Brix increased rate from the initial day of spraying: 18.1%
  Concentration of soluble solid matter, Brix: 20.5%
  PC increased rate from the initial day of spraying: 22.0%
  Sugar content in sugarcane, PC: 15.1%
  Total sugar amount recoverable from 1 kg of stem, ATR: 146.0 g

## COc1cc(OC)nc(Oc2cccc(Oc3nc(OC)cc(OC)n3)c2C(=O)ON=C(c2ccccc2)c2ccccc2)n1 [Pyribenzoxim, pyribenzoxim]
Sugarcane [2]; [6]
  ATR increased rate from the initial day of spraying: 14.2%
  Brix increased rate from the initial day of spraying: 10.9%
  Concentration of soluble solid matter, Brix: 17.8%
  Total sugar amount recoverable from 1 kg of stem, ATR: 128.1 g
Sugarcane [2]; [7]
  ATR increased rate from the initial day of spraying: 10.2%
  Brix increased rate from the initial day of spraying: 9.1%
  Concentration of soluble solid matter, Brix: 17.5%
  Total sugar amount recoverable from 1 kg of stem, ATR: 123.6 g
Sugarcane [2]; [8]
  ATR increased rate from the initial day of spraying: 22.0%
  Brix increased rate from the initial day of spraying: 19.7%
  Concentration of soluble solid matter, Brix: 19.2%
  Total sugar amount recoverable from 1 kg of stem, ATR: 136.8 g

## COCc1cccc(C(O)c2nc(OC)cc(OC)n2)c1NS(=O)(=O)C(F)F (stereo not drawn) [Pyrimisulfan, pyrimisulfan]
Sugarcane [3]; [6]
  ATR increased rate from the initial day of spraying: 5.5%
  Brix increased rate from the initial day of spraying: 5.8%
  Concentration of soluble solid matter, Brix: 17.4%
  Total sugar amount recoverable from 1 kg of stem, ATR: 120.1 g
Sugarcane [3]; [7]
  ATR increased rate from the initial day of spraying: 9.5%
  Brix increased rate from the initial day of spraying: 7.6%
  Concentration of soluble solid matter, Brix: 17.7%
  Total sugar amount recoverable from 1 kg of stem, ATR: 124.6 g
Sugarcane [3]; [8]
  ATR increased rate from the initial day of spraying: 12.6%
  Brix increased rate from the initial day of spraying: 8.2%
  Concentration of soluble solid matter, Brix: 17.8%
  Total sugar amount recoverable from 1 kg of stem, ATR: 128.1 g

## COC(=O)c1ccccc1S(=O)(=O)NC(=O)Nc1nc(C)cc(C)n1 [Sulfometuron-methyl, sulfometuron-methyl]
Sugarcane [3]; [9]
  ATR increased rate from the initial day of spraying: 1.7%
  Brix increased rate from the initial day of spraying: 1.2%
  Concentration of soluble solid matter, Brix: 16.7%
  Total sugar amount recoverable from 1 kg of stem, ATR: 117.0 g
Sugarcane [3]; [10]
  ATR increased rate from the initial day of spraying: 8.1%
  Brix increased rate from the initial day of spraying: 6.4%
  Concentration of soluble solid matter, Brix: 17.6%
  Total sugar amount recoverable from 1 kg of stem, ATR: 124.5 g
Sugarcane [3]; [11]
  ATR increased rate from the initial day of spraying: −0.6%
  Brix increased rate from the initial day of spraying: −1.8%
  Concentration of soluble solid matter, Brix: 16.2%
  Total sugar amount recoverable from 1 kg of stem, ATR: 114.4 g
Sugarcane [4]; after 30 days of spraying
  ATR increased rate from the initial day of spraying: 21.9%
  Brix increased rate from the initial day of spraying: 21.4%
  Concentration of soluble solid matter, Brix: 19.2%
  PC increased rate from the initial day of spraying: 24.3%
  Sugar content in sugarcane, PC: 13.9%
  Total sugar amount recoverable from 1 kg of stem, ATR: 138.1 g
Sugarcane [4]; after 45 days of spraying
  ATR increased rate from the initial day of spraying: 31.2%
  Brix increased rate from the initial day of spraying: 29.6%
  Concentration of soluble solid matter, Brix: 20.5%
  PC increased rate from the initial day of spraying: 35.1%
  Sugar content in sugarcane, PC: 15.1%
  Total sugar amount recoverable from 1 kg of stem, ATR: 148.7 g
Sugarcane [2]; [9]
  ATR increased rate from the initial day of spraying: −3.2%
  Brix increased rate from the initial day of spraying: −5.4%
  Concentration of soluble solid matter, Brix: 16.5%
  Total sugar amount recoverable from 1 kg of stem, ATR: 120.1 g
Sugarcane [2]; [10]
  ATR increased rate from the initial day of spraying: 9.9%
  Brix increased rate from the initial day of spraying: 9.2%
  Concentration of soluble solid matter, Brix: 19.1%
  Total sugar amount recoverable from 1 kg of stem, ATR: 136.3 g
Sugarcane [2]; [11]
  ATR increased rate from the initial day of spraying: 19.0%
  Brix increased rate from the initial day of spraying: 17.2%
  Concentration of soluble solid matter, Brix: 20.5%
  Total sugar amount recoverable from 1 kg of stem, ATR: 147.6 g
Sugarcane [5]; [9]
  ATR increased rate from the initial day of spraying: 1.7%
  Brix increased rate from the initial day of spraying: 1.2%
  Concentration of soluble solid matter, Brix: 16.7%
  Total sugar amount recoverable from 1 kg of stem, ATR: 117.0 g
Sugarcane [5]; [10]
  ATR increased rate from the initial day of spraying: 8.1%
  Brix increased rate from the initial day of spraying: 6.4%
  Concentration of soluble solid matter, Brix: 17.6%
  Total sugar amount recoverable from 1 kg of stem, ATR: 124.5 g
Sugarcane [5]; [11]
  ATR increased rate from the initial day of spraying: −0.6%
  Brix increased rate from the initial day of spraying: −1.8%
  Concentration of soluble solid matter, Brix: 16.2%
  Total sugar amount recoverable from 1 kg of stem, ATR: 114.4 g

## gibberellin
Sugarcane [5]; [12]
  ATR increased rate from the initial day of spraying: 5.3%
  Brix increased rate from the initial day of spraying: 5.5%
  Concentration of soluble solid matter, Brix: 17.2%
  Total sugar amount recoverable from 1 kg of stem, ATR: 120.5 g
Sugarcane [5]; [13]
  ATR increased rate from the initial day of spraying: 11.7%
  Brix increased rate from the initial day of spraying: 8.9%
  Concentration of soluble solid matter, Brix: 17.8%
  Total sugar amount recoverable from 1 kg of stem, ATR: 127.9 g
Sugarcane [5]; [14]
  ATR increased rate from the initial day of spraying: 3.8%
  Brix increased rate from the initial day of spraying: 3.1%
  Concentration of soluble solid matter, Brix: 16.8%
  Total sugar amount recoverable from 1 kg of stem, ATR: 118.8 g
